Laboratory results taken from PubChem BioAssay (NCI).
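All cell lines were grown in 96-well plates and treated with compound for 48 hours. The concentration for 50% growth inhibition is given as GI50. TGI marks complete inhibition of growth.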

How the values were obtained:
Assay in all cases: NCI-60 cell line screen, 48 h
PC-3 prostate = test system: PC-3 prostate
NCI-H23 lung = test system: NCI-H23 lung
NCI-H226 lung = test system: NCI-H226 lung
U251 CNS = test system: U251 CNS
ACHN renal = test system: ACHN renal
NCI/ADR-RES ovarian = test system: NCI/ADR-RES ovarian
BT-549 breast = test system: BT-549 breast
RXF 393 renal = test system: RXF 393 renal
EKVX NSCLC = test system: EKVX NSCLC
M14 melanoma = test system: M14 melanoma
RPMI-8226 leukemia = test system: RPMI-8226 leukemia
SK-MEL-5 melanoma = test system: SK-MEL-5 melanoma
UO-31 renal = test system: UO-31 renal
SNB-75 CNS = test system: SNB-75 CNS
A549 NSCLC = test system: A549 NSCLC
SK-OV-3 ovarian = test system: SK-OV-3 ovarian
TK-10 renal = test system: TK-10 renal
SN12C renal = test system: SN12C renal
OVCAR-5 ovarian = test system: OVCAR-5 ovarian
SR leukemia = test system: SR leukemia
IGROV1 ovarian = test system: IGROV1 ovarian
LOX IMVI melanoma = test system: LOX IMVI melanoma
HCC-2998 colon = test system: HCC-2998 colon
786-0 renal = test system: 786-0 renal
T-47D breast = test system: T-47D breast
HOP-92 NSCLC = test system: HOP-92 NSCLC
MDA-N = test system: MDA-N
OVCAR-8 ovarian = test system: OVCAR-8 ovarian
HT29 colon = test system: HT29 colon
HL-60(TB) leukemia = test system: HL-60(TB) leukemia
CAKI-1 renal = test system: CAKI-1 renal
MDA-MB-231 breast = test system: MDA-MB-231 breast
SW-620 colon = test system: SW-620 colon
MOLT-4 leukemia = test system: MOLT-4 leukemia
MDA-MB-435 = test system: MDA-MB-435
HS 578T breast = test system: HS 578T breast
HOP-62 NSCLC = test system: HOP-62 NSCLC
COLO 205 colon = test system: COLO 205 colon
OVCAR-3 ovarian = test system: OVCAR-3 ovarian
DU-145 prostate = test system: DU-145 prostate
KM12 colon = test system: KM12 colon
MCF7 breast = test system: MCF7 breast
NCI-H522 lung = test system: NCI-H522 lung
HCT-116 colon = test system: HCT-116 colon
UACC-62 melanoma = test system: UACC-62 melanoma
SF-539 CNS = test system: SF-539 CNS
OVCAR-4 ovarian = test system: OVCAR-4 ovarian
SF-295 CNS = test system: SF-295 CNS
SF-268 CNS = test system: SF-268 CNS
K-562 leukemia = test system: K-562 leukemia
NCI-H460 lung = test system: NCI-H460 lung
SK-MEL-28 melanoma = test system: SK-MEL-28 melanoma
MALME-3M melanoma = test system: MALME-3M melanoma
SK-MEL-2 melanoma = test system: SK-MEL-2 melanoma
SNB-19 CNS = test system: SNB-19 CNS
CCRF-CEM leukemia = test system: CCRF-CEM leukemia
UACC-257 melanoma = test system: UACC-257 melanoma
HCT-15 colon = test system: HCT-15 colon

COc1cc(O)c2c(=O)c(OC)c(-c3ccc(OC)c(OC)c3)oc2c1.[Co]
GI50 (PC-3 prostate): 66.7 µM | TGI (PC-3 prostate): > 100 µM | GI50 (NCI-H23 lung): > 100 µM | TGI (NCI-H23 lung): > 100 µM | TGI (NCI-H226 lung): > 100 µM | TGI (U251 CNS): > 100 µM | GI50 (ACHN renal): 56.9 µM | TGI (ACHN renal): > 100 µM | GI50 (NCI/ADR-RES ovarian): > 100 µM | TGI (NCI/ADR-RES ovarian): > 100 µM | TGI (BT-549 breast): > 100 µM | TGI (RXF 393 renal): > 100 µM | GI50 (EKVX NSCLC): > 100 µM | TGI (EKVX NSCLC): > 100 µM | GI50 (M14 melanoma): > 100 µM | TGI (M14 melanoma): > 100 µM | TGI (RPMI-8226 leukemia): > 100 µM | GI50 (SK-MEL-5 melanoma): 70.3 µM | TGI (SK-MEL-5 melanoma): > 100 µM | TGI (UO-31 renal): > 100 µM | TGI (SNB-75 CNS): > 100 µM | TGI (A549 NSCLC): > 100 µM | TGI (SK-OV-3 ovarian): > 100 µM | TGI (TK-10 renal): > 100 µM | TGI (SN12C renal): > 100 µM | GI50 (OVCAR-5 ovarian): > 100 µM | TGI (OVCAR-5 ovarian): > 100 µM | GI50 (SR leukemia): 5.29 µM | TGI (SR leukemia): > 100 µM | GI50 (IGROV1 ovarian): > 100 µM | TGI (IGROV1 ovarian): > 100 µM | GI50 (LOX IMVI melanoma): > 100 µM | TGI (LOX IMVI melanoma): > 100 µM | GI50 (HCC-2998 colon): > 100 µM | TGI (HCC-2998 colon): > 100 µM | TGI (786-0 renal): > 100 µM | GI50 (T-47D breast): 10.7 µM | TGI (T-47D breast): > 100 µM | GI50 (HOP-92 NSCLC): 31.8 µM | TGI (HOP-92 NSCLC): > 100 µM | TGI (MDA-N): > 100 µM | GI50 (OVCAR-8 ovarian): > 100 µM | TGI (OVCAR-8 ovarian): > 100 µM | GI50 (HT29 colon): > 100 µM | TGI (HT29 colon): > 100 µM | TGI (HL-60(TB) leukemia): > 100 µM | TGI (CAKI-1 renal): > 100 µM | GI50 (MDA-MB-231 breast): 18.1 µM | TGI (MDA-MB-231 breast): > 100 µM | TGI (SW-620 colon): > 100 µM | GI50 (MOLT-4 leukemia): 9.92 µM | TGI (MOLT-4 leukemia): > 100 µM | TGI (MDA-MB-435): > 100 µM | TGI (HS 578T breast): > 100 µM | GI50 (HOP-62 NSCLC): 34.5 µM | TGI (HOP-62 NSCLC): > 100 µM | TGI (COLO 205 colon): > 100 µM | GI50 (OVCAR-3 ovarian): > 100 µM | TGI (OVCAR-3 ovarian): > 100 µM | GI50 (DU-145 prostate): > 100 µM | TGI (DU-145 prostate): > 100 µM | GI50 (KM12 colon): > 100 µM | TGI (KM12 colon): > 100 µM | GI50 (MCF7 breast): > 100 µM | TGI (MCF7 breast): > 100 µM | TGI (NCI-H522 lung): 35.1 µM | GI50 (HCT-116 colon): 61.6 µM | TGI (HCT-116 colon): > 100 µM | GI50 (UACC-62 melanoma): 32.3 µM | TGI (UACC-62 melanoma): > 100 µM | TGI (SF-539 CNS): > 100 µM | GI50 (OVCAR-4 ovarian): 13.1 µM | TGI (OVCAR-4 ovarian): > 100 µM | GI50 (SF-295 CNS): 16.2 µM | TGI (SF-295 CNS): > 100 µM | GI50 (SF-268 CNS): 38.4 µM | TGI (SF-268 CNS): > 100 µM | GI50 (K-562 leukemia): 75.5 µM | TGI (K-562 leukemia): > 100 µM | TGI (NCI-H460 lung): > 100 µM | GI50 (SK-MEL-28 melanoma): > 100 µM | TGI (SK-MEL-28 melanoma): > 100 µM | GI50 (MALME-3M melanoma): 51.4 µM | TGI (MALME-3M melanoma): > 100 µM

Cc1ccc(/C=C2\N=C(N3CCOCC3)NC2=O)cc1
TGI (PC-3 prostate): > 100 µM | TGI (NCI-H23 lung): > 100 µM | TGI (NCI-H226 lung): > 100 µM | TGI (SK-MEL-2 melanoma): > 100 µM | TGI (U251 CNS): > 100 µM | TGI (SNB-19 CNS): > 100 µM | TGI (ACHN renal): > 100 µM | TGI (CCRF-CEM leukemia): > 100 µM | TGI (NCI/ADR-RES ovarian): > 100 µM | TGI (BT-549 breast): > 100 µM | TGI (RXF 393 renal): > 100 µM | TGI (EKVX NSCLC): > 100 µM | TGI (UACC-257 melanoma): > 100 µM | TGI (M14 melanoma): > 100 µM | TGI (RPMI-8226 leukemia): > 100 µM | TGI (UO-31 renal): > 100 µM | TGI (SNB-75 CNS): > 100 µM | TGI (A549 NSCLC): > 100 µM | TGI (SK-OV-3 ovarian): > 100 µM | TGI (TK-10 renal): > 100 µM | TGI (SN12C renal): > 100 µM | TGI (OVCAR-5 ovarian): > 100 µM | TGI (SR leukemia): > 100 µM | TGI (IGROV1 ovarian): > 100 µM | TGI (LOX IMVI melanoma): > 100 µM | TGI (HCC-2998 colon): > 100 µM | TGI (786-0 renal): > 100 µM | TGI (T-47D breast): > 100 µM | TGI (HOP-92 NSCLC): > 100 µM | TGI (MDA-N): > 100 µM | TGI (OVCAR-8 ovarian): > 100 µM | TGI (HT29 colon): > 100 µM | TGI (HL-60(TB) leukemia): > 100 µM | TGI (CAKI-1 renal): > 100 µM | TGI (MDA-MB-231 breast): > 100 µM | TGI (SW-620 colon): > 100 µM | TGI (MOLT-4 leukemia): > 100 µM | TGI (MDA-MB-435): > 100 µM | TGI (HS 578T breast): > 100 µM | TGI (HOP-62 NSCLC): > 100 µM | TGI (COLO 205 colon): > 100 µM | TGI (HCT-15 colon): > 100 µM | TGI (OVCAR-3 ovarian): > 100 µM | TGI (DU-145 prostate): > 100 µM | TGI (KM12 colon): > 100 µM | TGI (MCF7 breast): > 100 µM | TGI (NCI-H522 lung): > 100 µM | TGI (HCT-116 colon): > 100 µM | TGI (UACC-62 melanoma): > 100 µM | TGI (SF-539 CNS): > 100 µM | TGI (OVCAR-4 ovarian): > 100 µM | TGI (SF-295 CNS): > 100 µM | TGI (SF-268 CNS): > 100 µM | TGI (SK-MEL-28 melanoma): > 100 µM | TGI (MALME-3M melanoma): > 100 µM
